Results published in patent publication US20250339567A1, “COMPOUNDS WITH IMPROVED PHARMACOKINETICS FOR IMAGING AND THERAPY OF CANCER” (priority 2019, published 2025).
Read-outs that look alike come from different tables or passages of the source.

Key:
[1] = Plasma studies: metabolic stability in vitro in human plasma (radio RP-HPLC); format: in vitro ADME
Procedure, shortened: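 Radiotracer incubated in human or murine plasma at 37° C. immediately after labeling, for 72±2 h or 6±0.5 h. Proteins precipitated with ice-cold EtOH and MeCN and centrifuged. Supernatant analysed by radio RP-HPLC.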

[2] = n-Octanol-PBS distribution coefficient, log D7.4; format: physicochemical; conditions: 177Lu-labeled ligand; n-octanol/PBS pH 7.4
Protocol: Approximately 1 MBq of the labeled tracer was dissolved in 1 mL of a 1:1 mixture (v/v) of phosphate buffered saline (PBS, pH=7.4) and n-octanol in an Eppendorf tube. After vigorous mixing of the suspension for 3 min at room temperature, the vial was centrifuged at 9000 rpm for 5 min (Biofuge 15, Heraus Sepatech, Osterode, Germany) and 200 μL aliquots of both layers were measured in a γ-counter. The experiment was repeated at least four times.

[3] = tested on: PC-3 tumor-bearing CB17-SCID mice; conditions: mouse, in vivo
Protocol: (§1) All animal experiments were conducted in accordance with general animal welfare regulations in Germany (German animal protection act, as amended on 18 May 2018, Art. 141 G v. 29.3.2017 | 626, approval no. ROB-55.2-2532.Vet_02-18-109) and the institutional guidelines for the care and use of animals. To establish tumor xenografts, PC-3 cells (5×10^6 cells per 200 μL) were suspended in a 1:1 mixture (v/v) of Dulbecco's modified eagle's medium/Ham's F-12 (DMEM/F-12) with Glutamax-I (1:1) and Cultrex® Basement Membrane Matrix Type 3 (Trevigen Inc., Gaithersburg, MD, USA) and inoculated subcutaneously onto the right shoulder of 6-10 weeks old female CB17-SCID mice (Charles River Laboratories International Inc., Sulzfeld, Germany). Mice were used for experiments when tumor volume was 125-500 mm^3 (2-3 weeks after inoculation).
Imaging studies were performed at a MILabs VECTor^4 small-animal SPECT/PET/OI/CT device (MILabs, Utrecht, the Netherlands). Data were reconstructed using the MILabs Rec software (version 10.02) and a pixel-based Similarity-Regulated Ordered Subsets Expectation Maximization (SROSEM) algorithm, followed by data analysis using the PMOD4.0 software (PMOD TECHNOLOGIES LLC, Zurich, Switzerland). […] Static images were recorded within 1 and 28 h p.i. with an acquisition time of 45-60 min using the HE-GP-RM collimator and a step-wise multi-planar bed movement.

GRPR = target: T1, GRPR (Homo sapiens, UniProt P30550); experiment: Determination of GRPR affinity (IC50), competition with [D-3-[125I]I-Tyr6]MJ9 on PC-3 cells; format: binding
T1 construct: endogenous in cells; host or cells: PC-3 cells

PC-3 cells = experiment: Internalization into PC-3 cells; format: cell-based; conditions: c = 1 nM, 1 h, 37° C., corrected for non-specific binding (10^-3 M [natLu]RM2)
Protocol: For internalization studies, PC-3 cells are harvested 24±2 h before the experiment and seeded in 24-well plates (1.5×10^5 cells/well, 1 mL). Subsequent to the removal of the culture medium, the cells are washed once with 500 μL DMEM/F-12 (5% BSA) and left to equilibrate at 37° C. for at least 15 min in 200 μL DMEM/F-12 (5% BSA). […] Next, 25 μL of the ^125I/^177Lu-labeled GRPR ligand (10 nm) is added and the cells are incubated at 37° C. for 60 min.
The experiment is terminated by placing the 24-well plate on ice for 1 min and consecutive removal of the medium. Each well is rinsed with 300 μL ice-cold PBS and the fractions from these first two steps are combined, representing the amount of free radiolabeled reference. Removal of surface bound activity is accomplished by incubation of the cells with 300 μL of ice-cold Acid Wash solution (0.02 M NaOAc, pH=5.0) for 10 min at room temperature and rinsed again with 300 μL of ice-cold PBS. The internalized activity is determined by incubation of the cells in […] NaOH (1 M) and the combination with the fraction of a subsequent washing step with 300 μL NaOH (1 M).
Each experiment (control and blockade) is performed sixfold. Free, surface bound and internalized activity is quantified in a γ-counter. Data is corrected for non-specific internalization.

[4] = tested on: PC-3 tumor-bearing CB17-SCID mice; experiment: Biodistribution in PC-3 tumor-bearing CB17-SCID mice; format: in vivo; conditions: 177Lu-labeled, 24 h p.i.
Protocol: as §1
Approximately 1-5 MBq ([…]) of the radiolabeled GRPR antagonists were injected into the tail vein of PC-3 tumor-bearing mice and sacrificed at 1, 4 or 24 h p.i. (n=4). Selected organs were removed, weighted and measured in a γ-counter (Perkin Elmer, Waltham, MA, USA).

T1 sequence (P30550 whole entry): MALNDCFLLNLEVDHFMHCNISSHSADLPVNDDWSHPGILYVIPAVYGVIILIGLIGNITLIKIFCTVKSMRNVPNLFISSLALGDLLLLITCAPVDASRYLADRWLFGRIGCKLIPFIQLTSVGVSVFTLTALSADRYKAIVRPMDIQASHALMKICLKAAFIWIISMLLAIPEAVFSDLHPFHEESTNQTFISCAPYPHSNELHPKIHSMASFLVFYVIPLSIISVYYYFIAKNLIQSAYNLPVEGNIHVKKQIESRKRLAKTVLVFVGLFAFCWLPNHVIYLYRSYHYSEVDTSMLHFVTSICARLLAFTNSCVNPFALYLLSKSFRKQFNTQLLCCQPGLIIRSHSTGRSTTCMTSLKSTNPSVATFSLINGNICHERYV

SMILES	Amount of intact tracer after incubation in human plasma for 72 ± 2 h (n = 2) [1]	metabolite, first-eluting peak in chromatogram [1]	metabolite, second peak in chromatogram [1]	remaining intact tracer in chromatogram ([1]; human, plasma, 2 h)	log D7.4 ± SD (n = 8) [2]	clearance of background activity in imaging [3]	IC50 (GRPR; IC50 [nM] ± SD (n = 3), ^177Lu-labeled, Table 1C, GRPR affinity)	IC50 (GRPR; IC50 ± SD (n = 3), Table 3, [D-3-[125I]I-Tyr6]MJ9 (c = 0.2 nM), 2 h, r.t., HBSS + 1% BSA)	Amount of intact tracer after incubation in human plasma for 72 ± 2 h (n = 2) ([1]; Table 1C, 177Lu-labeled, 37° C., 72 ± 2 h, in % (unit assumed))	amount of intact tracer (in vitro stability), mean ± SD ([1]; human plasma, 37° C., 72±2 h)	Specific internalization (mean ± SD, n = 6) (PC-3 cells)	pancreas retention ([4]; 100 pmol, FIG. 11)	tumor retention ([4]; 100 pmol, FIGS. 11, 18)	tumor-to-background ratios (tumor-to-blood, tumor-to-muscle) ([4]; FIG. 12)
CC(C)C[C@H](NC(=O)C[C@H](O)[C@H](CC(C)C)NC(=O)[C@H](Cc1c[nH]cn1)NC(=O)CNC(=O)[C@@H](NC(=O)[C@H](C)NC(=O)[C@](C)(Cc1c[nH]c2ccccc12)NC(=O)[C@H](CCC(N)=O)NC(=O)[C@@H](Cc1ccccc1)NC(=O)CN1CCC(NC(=O)CN2CCN(CC(=O)O)CCN(CC(=O)O)CCN(CC(=O)O)CC2)CC1)C(C)C)C(N)=O [AMTG]	77.6 ± 10.1	2%	5%	92%	−2.28 ± 0.06	cleared less rapid	–	–	–	–	–	–	–	–
CC(C)CC(CC(C)C)NC(=O)[C@H](Cc1cnc[nH]1)NC(=O)CNC(=O)[C@@H](NC(=O)[C@H](C)NC(=O)[C@H](Cc1c[nH]c2ccccc12)NC(=O)[C@H](CCC(N)=O)NC(=O)[C@@H](Cc1ccccc1)NC(=O)COCC(=O)Nc1ccc(CNC(=O)CN2CCN(CC(=O)O)CCN(CC(=O)O)CCN(CC(=O)O)CC2)cc1)C(C)C [NeoBOMB1, reference compound]	–	–	–	–	−0.57 ± 0.03	–	4.2 ± 0.1 nM	4.22 ± 0.14 nM	60.8 ± 1.2	60.8±1.2%	13.91 ± 0.64 % of the used activity	high pancreas retention	high tumor retention	minor tumor-to-background ratios than the reference
